Test results from patent publication US5663333A, “Substituted 1,4-diazapine caprolactams useful for treatment of HIV disease” (The DuPont Merck Pharmaceutical Company, priority 1993, dated 1997).

Assays:
HIV-1 protease = target: T1, HIV-1 protease (Human immunodeficiency virus type 1 group M subtype B, UniProt P04585); experiment: HIV Protease Inhibition Assay - HPLC Method; format: biochemical; conditions: single-chain tethered dimer of HIV protease, pH 5.5
T1 construct: synthetic gene coding for a single-chain tethered dimer of HIV protease; second copy of HIV protease joined in the same chain by a tether (single-chain tethered dimer); made in house
Procedure: Protease: Inclusion bodies of E. coli harboring plasmid containing plasmid T1718R with a synthetic gene coding for a single-chain tethered dimer of HIV protease were prepared as described in Cheng et al. (Proc. Natl. Acad. Sci. USA, 87, 9660-9664, 1990). Active protease was prepared as described therein by extraction with 67% acetic acid, dilution 33-fold with water, dialysis against water and then against a "refolding buffer" consisting of 20 mM MES, 1 mM dithiothreitol and 10% glycerol. Protease was stored as a stock preparation at 10 uM in refolding buffer. […]
HPLC measurement of product formation: The product (aminobenzoyl-Ala--Thr--His--Gln--Val--Tyr) was separated from substrate on a Pharmacia MonoQ anion exchange column. […] Detection with a Shimadzu model RF535 fluorescence monitor was at 330 nm (excitation) and 430 (emission). The Ki was calculated from the formula Ki=I/(((Km+S-FA*S)/(FA*Km))-1) where I=inhibitory concentration, S=substrate concentration, FA=fractional activity=cm peak height with inhibitor/cm peak height without inhibitor, and Km=Michaelis constant=20 uM.
In the Tables herein the Ki values were determined using the assay conditions described above under HIV Protease Inhibition Assay-HPLC Method. […]

[1] = tested on: HIV(3B) or HIV(RF) in MT-2 cells; experiment: HIV Low Multiplicity Assay (whole cell infectivity assay); format: cell-based; conditions: Human immunodeficiency virus 1, MT2, 168 h, 7 days, XTT, 90% protection from virus induced cell death
Procedure: Materials: MT-2, a human T-Cell line, was cultured in RPMI medium supplemented with 5% (v/v) heat inactivated fetal calf serum (FCS), L-glutamine and gentamycin (GIBCO). Human immunodeficiency virus strains HIV (3B) and HIV (RF) were propagated in H-9 cells in RPMI with 5% FCS. XTT, benzene-sulfonic acid, 3,3'-[1-[(phenyl-amino) carbonyl]-3,4-tetrazolium]bis(4-methoxy-6-nitro)-, sodium salt, was obtained from Starks Associates, Inc.
Method: Test compounds were dissolved in dimethylsulfoxide to 5 mg/ml and serially diluted into RPMI medium to ten times the desired final concentration. MT-2 cells (5×10^4 /0.1 mL) were added to each well of a 96 well culture plate and 0.02 mL of the appropriate test compound solution was added to the cells such that each compound concentration was present in two wells. The cells and compounds were allowed to sit for 30 minutes at room temperature. […] The percentage of cells protected from virus induced cell death was determined by the degree of metabolism of the tetrazolium dye, XTT. In living cells, XTT was metabolized to a colored formazan product which was quantitated spectrophotometrically at 450 nm. […]
In the Tables herein the IC90 values were determined using the assay conditions described above under HIV Low Multiplicity Assay. […]

O=C1N[C@H](Cc2ccccc2)[C@H](O)CN[C@H]1Cc1ccccc1 [Example 1]
Ki (HIV-1 protease): < 10 nM | IC90 [1]: < 10 µg/mL

O=C1N[C@H](Cc2ccccc2)[C@H](O)CN(Cc2ccccc2)[C@H]1Cc1ccccc1 [Example 24]
Ki (HIV-1 protease): 10 to 1000 nM | IC90 [1]: < 10 µg/mL
